Here are results for 1 molecule from US20090081310A1, “METHOD FOR R[…] STRUCTURE CO[…] MOLD” (priority 2004, published 2009).

Data set [1] concerns mold and mold spores. Put plainly: Fumigation of an approximately 6000 square feet mold-contaminated structure with chlorine dioxide gas (Example 2). The conditions noted are these: 600 to 1300 ppmv for 12 hours, total CT over 9000 ppmv hours; 70 to 100° F., minimum 65% relative humidity; including mold underneath wallpaper. As to the method: A structure of approximately 6000 square feet consisting of three above surface floors and a basement was located that had developed significant mold growth of a variety of species due to water intrusion and appropriate environmental conditions. […] Mold growth was visible and abundant upon walls, ceilings and other surfaces.
The temperature of the structure was raised and maintained in the range of 70 to 100° F. (21 to 38° C.) and the relative humidity was raised to a minimum of 65%. Chlorine dioxide solution was generated in a closed fluid loop by the process described in U.S. Pat. No. 6,468,479. Chlorine dioxide gas was added to the structure at such a rate as to maintain a concentration of between 600 and 1300 ppmv for a 12 hour period and a total CT of over 9000 ppmv hours of chlorine dioxide.
Chlorine dioxide concentration and purity were monitored by AWWA standard method 6500-ClO2-E in solution phase and a modification therewith to adapt the procedure for gas phase sampling. […] The maximum chlorine dioxide concentration detected exterior to the containment tent was less than 2 parts per billion, well within the maximum exposure guidelines established.
Following treatment mold viability was evaluated in the structure. […]

Another data set relates to mold spores. Put plainly: Mold remediation with chlorine dioxide gas, general finding. Conditions: time averaged concentration about 500 to 1500 ppmv over a 12 hour period. On the procedure:
It is an aspect of this invention to minimize the chlorine dioxide concentration and CT to the extent possible to assure decontamination while avoiding damage to building contents such as electronic equipment (e.g., telephone equipment, computers, copiers, and other electronic office equipment), furnishings, and the like. Typical chlorine dioxide concentrations are in the range of 500 to 3000 ppmv, and exposure times are typically about 8 to 12 hours. For mold remediation, a time averaged chlorine dioxide gas concentration in the range of about 500 to 1500 ppmv over a 12 hour period has been found effective for killing mold spores and eliminating allergenic effects.

For data set [2], the system named is mold and mold spores. Put plainly: Fumigation of an approximately 50,000 ft^2 mold-contaminated building with chlorine dioxide gas (Example 1). Conditions: 2,500 to 3,000 ppmv over 3 hours; approx. 75° F., approx. 75% relative humidity. As to the method: An approximately 50,000 ft^2 mold-contaminated building (1 million cubic feet approximately) was remediated by fumigating the building with chlorine dioxide gas at a concentration within the range of 2,500 to 3,000 ppmv over a period of 3 hours. Temperature was maintained at approximately 75° F. and the relative humidity was maintained at approximately 75% before and during fumigation. Carpets and other porous materials within the contaminated building were not removed prior to fumigation. […] Porous surfaces that were black, grey and green shades prior to treatment were returned to original appearance. The mold mass was also substantially eliminated such that one to four square foot samples were required to collect 0.1 to 0.25 grams of mold residue resulting in a 99+ percent elimination in mold mass. Samples of the treated material were analyzed by PCR (polymerase chain reaction) analysis for DNA. Depending upon the initial concentration levels a 3 to 7 log reduction in DNA was observed.

With `[O][Cl+][O-]` [chlorine dioxide gas, chlorine dioxide], the “mold and mold spores rendered non viable” value with mold and mold spores [1] is approximately 100%. Besides, in the data set with mold spores, the “killing mold spores and eliminating allergenic effects” value is “effective”. In the data set with mold and mold spores [2], the “elimination in mold mass” value is not below 99%; the “viable mold and mold spores in the facility” value is “substantially eliminated viable mold and mold spores”.
